Changes are numbered by the printed parent chain.
Legend:
GlyT1 WT = tested on: GlyT1 WT; design: method as in earlier work; conditions: previously published; cited from earlier work
GlyT2 WT = molecular target: T1, GlyT2 WT (Homo sapiens, UniProt Q9Y345); design: expressed in transfected cells; host or cells: Xenopus laevis oocytes (cRNA injection); conditions: WT GlyT2, previously published, cited from earlier work; for IC50: mean (95% CI); for GlyT2 % max. inhibition: mean ± SEM
T1 sequence (Q9Y345 1-797): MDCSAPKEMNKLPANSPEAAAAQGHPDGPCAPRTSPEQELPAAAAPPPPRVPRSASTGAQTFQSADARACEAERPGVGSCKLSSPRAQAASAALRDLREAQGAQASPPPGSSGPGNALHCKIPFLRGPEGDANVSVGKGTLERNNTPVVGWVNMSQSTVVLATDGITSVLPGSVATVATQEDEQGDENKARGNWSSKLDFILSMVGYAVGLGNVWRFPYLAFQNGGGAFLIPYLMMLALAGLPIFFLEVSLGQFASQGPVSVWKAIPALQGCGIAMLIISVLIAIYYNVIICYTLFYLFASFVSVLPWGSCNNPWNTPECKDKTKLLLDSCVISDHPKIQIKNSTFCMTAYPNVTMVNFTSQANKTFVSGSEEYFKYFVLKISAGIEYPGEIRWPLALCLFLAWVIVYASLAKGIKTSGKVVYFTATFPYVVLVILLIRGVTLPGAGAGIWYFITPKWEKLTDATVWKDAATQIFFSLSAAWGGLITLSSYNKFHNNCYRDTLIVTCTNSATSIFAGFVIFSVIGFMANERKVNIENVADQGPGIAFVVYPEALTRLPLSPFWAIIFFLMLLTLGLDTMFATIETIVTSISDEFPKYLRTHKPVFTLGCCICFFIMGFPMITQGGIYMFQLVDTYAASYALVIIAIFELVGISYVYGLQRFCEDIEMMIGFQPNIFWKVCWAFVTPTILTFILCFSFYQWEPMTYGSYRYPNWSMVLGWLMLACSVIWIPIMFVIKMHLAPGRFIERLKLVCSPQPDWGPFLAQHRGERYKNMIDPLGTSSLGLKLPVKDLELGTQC

GlyT2 V432A mutant = molecular target: T2, GlyT2 V432A mutant (Homo sapiens, UniProt Q9Y345, V432A); assay: Glycine transport currents, two electrode voltage clamp, oocytes expressing GlyT2 V432A; format: cell-based; conditions: GlyT2 V432A; for IC50: greater than maximum concentration applied (footnote a)
T2 construct: expressed in transfected cells; host or cells: Xenopus laevis oocytes (cRNA injection)
T2 sequence (Q9Y345 1-797 V432A): T1 sequence (Q9Y345 1-797) with V432A
Method: (§1) Glycine was first applied to establish maximal transport current.
(§2) Compounds were tested for inhibition of glycine transport on Xenopus laevis oocytes expressing mutant GlyT1 and GlyT2 transporters. n values are in brackets, with measurements taken from at least 2 batches of oocytes.

GlyT2 F428A mutant = molecular target: T3, GlyT2 F428A mutant (Homo sapiens, UniProt Q9Y345, F428A); assay: Glycine transport currents, two electrode voltage clamp, oocytes expressing GlyT2 F428A; format: cell-based; conditions: GlyT2 F428A; mean ± SEM
T3 construct: expressed in transfected cells; host or cells: Xenopus laevis oocytes (cRNA injection)
T3 sequence (Q9Y345 1-797 F428A): T1 sequence (Q9Y345 1-797) with F428A
Method: as §1, §2

Compound	IC50 (GlyT1 WT) [µM]	IC50 (GlyT2 WT) [µM]	GlyT2 % max. inhibition (GlyT2 WT) [%]	IC50 (GlyT2 V432A mutant) [µM]	% Max. inhibition (GlyT2 V432A mutant; mean ± SEM)	% Max. inhibition (GlyT2 F428A mutant) [%]	% Max. inhibition (% inhibition at the highest concentration of inhibitor used) (GlyT2 V432A mutant; footnote b)
CCC=CCCCCCCCCCCCC(=O)NCC(=O)O [C16 ω3 Glycine]	> 10	0.81	65.3 ± 1.9	> 10	1.0 ± 3.0 (p=0.0193) %		
CCCCCC/C=C\CCCCCCCC(=O)NCC(=O)O [C16 ω7 Glycine]	> 10	1.5	92.5 ± 1.6	> 10		56.5	44.2 ± 6.3^b (p=0.0009) %

From PMC6797481, “Identification of an allosteric binding site on the human glycine transporter, GlyT2, for bioactive lipid analgesics” (eLife, 2019)
